From patent publication US12187727B2, “Methods for antagonizing a melanocortin 4 receptor” (Pfizer Inc., priority 2020, dated 2025) come the findings set out here.

Structures are written as SMILES. Where only a bound is given, the exact number is not on record here.

For one test, the target named is hMC4R (Homo sapiens (Human), UniProt P32245). As to the kind of experiment: In vitro binding affinity assay using hMC4R (radioligand competition binding, [125I]-(Nle4, D-Phe7)-α-MSH). The note with it: geometric mean, read-out: Ki (nM) geometric mean. Here is the method: Example AA. In Vitro Binding Affinity Assay Using hMC4R
hMC4R, sequence (P32245 whole entry): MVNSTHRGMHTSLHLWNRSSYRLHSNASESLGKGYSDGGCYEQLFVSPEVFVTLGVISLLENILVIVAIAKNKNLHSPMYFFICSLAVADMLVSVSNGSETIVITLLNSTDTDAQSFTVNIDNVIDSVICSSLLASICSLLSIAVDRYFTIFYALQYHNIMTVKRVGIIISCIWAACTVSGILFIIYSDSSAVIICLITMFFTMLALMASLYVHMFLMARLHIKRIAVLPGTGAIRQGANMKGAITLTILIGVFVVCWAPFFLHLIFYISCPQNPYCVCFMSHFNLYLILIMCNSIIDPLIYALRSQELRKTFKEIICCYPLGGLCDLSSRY
The binding affinity of test compounds at the […] (hMC4R) was assessed using a radioligand competition binding assay. […] Cell membranes were bulked and frozen until the assay was performed.
Compounds were solubilized in 100% dimethyl sulfoxide (DMSO) to a concentration of 30 mM. A 10-point intermediate dilution series using half log dilutions was created in 100% DMSO with a top concentration of 0.03 mM. […] The final compound range in the assay was 300 nM to 0.01 nM with a final DMSO concentration of 1%. […] The exact concentration of radioligand used for each experiment was determined by liquid scintillation counting and adjusted if necessary.
Frozen hMC4R cell membranes were thawed and Dounce homogenized. Homogenates were resuspended in assay buffer to a concentration of 2 μg per well. […] The plates were incubated for 2 hours at room temperature.
The raw data (expressed as counts per minute) were analyzed using ActivityBase (IDBS Data Management Software). […] Equilibrium dissociation constant for inhibitor of ligand and receptor interaction (Ki) values were then calculated from the IC50 values using the Cheng-Prusoff equation: Ki=IC50/(1+([L]/Kd)), where [L] is the concentration of the radioligand used in the experiment and Kd is the affinity of the radioligand (determined in separate saturation experiments).
For orientation: Loss of bound radioactivity is the signal in a displacement assay; it reports binding, not function.
`COc1cc([C@@H](C)C(=O)N2CC[C@@]3(CCc4cc(-c5ncccn5)c(C)nc4N3)C2)c(C(F)F)cn1` (single isomer, unassigned) [Example 37]: the Ki came out at 180 nM.

For `Cc1nc2c(cc1-c1ncccn1)CC[C@@]1(CCN(C(=O)C(C)c3cc(OC(F)(F)F)ncc3Cl)C1)N2` (single isomer, unassigned) [Example 63], the Ki turned out to be 94 nM. The same measure, in the same setting: with `COc1cc([C@@H](C)C(=O)N2CC[C@@]3(CCc4cc(-c5ncccn5)c(C)nc4N3)C2)cc(OC)n1` (single isomer, unassigned) [Example 84] the figure was 52 nM; with `Cc1nc2c(cc1-c1cnn(C)c1)CCC1(CCN(C(=O)Cc3ccc(F)cc3)C1)N2` (single isomer, unassigned) [Example 20, 2-(4-fluorophenyl)-1-[7-methyl-6-(1-methyl-1H-pyrazol-4-yl)-3,4-dihydro-1H-spiro[1,8-naphthyridine-2,3′-pyrrolidin]-1′-yl]ethan-1-one], 0.6 nM. On to `COc1ncc(Cl)c([C@@H](C)C(=O)N2CC[C@@]3(CCc4cc(-c5ncccn5)c(C)nc4N3)C2)n1` (single isomer, unassigned) [Example 86], for which the Ki was 2.3 nM. Same read-out and setting: for `Cc1ccc2c(n1)NC1(CCN(C(=O)Cc3ccc(F)cc3)C1)CC2C` (single isomer, unassigned) [Example 10, 1-(4,7-dimethyl-3,4-dihydro-1H-spiro[1,8-naphthyridine-2,3′-pyrrolidin]-1′-yl)-2-(4-fluorophenyl)ethan-1-one] the value was 440 nM; for `COc1cc([C@](C)(F)C(=O)N2CC[C@@]3(CCc4cc(-c5ncccn5)c(C)nc4N3)C2)ccn1` (single isomer, unassigned) [Example 47], 20 nM; for `COc1cc(OC)cc([C@@H](C)C(=O)N2CC[C@@]3(CCc4cc(-c5cnn(C)c5)c(C)nc4N3)C2)c1` (single isomer, unassigned) [Example 91], 17 nM.

Another test deals with human Melanocortin-4 receptor (MC4R) (Homo sapiens (Human), UniProt P32245). As to the kind of experiment: Functional in vitro MC4R antagonist potency assay (cAMP HTRF in CHO cells).
human Melanocortin-4 receptor (MC4R), sequence (P32245 whole entry): as above
Settings: not given
The format is cell-based. Here is the method:
Example BB. Functional In Vitro MC4R Antagonist Potency Assay
The functional in vitro antagonist potency for test compounds was determined by monitoring intracellular cyclic adenosine monophosphate (cAMP) levels in Chinese hamster ovary (CHO—) cells stably expressing the human Melanocortin-4 receptor (MC4R). Following agonist activation, human MC4R associates with the G-protein complex causing the Gα subunit to exchange bound GDP for GTP, followed by dissociation of the Ga-GTP complex. The activated Gα subunit can couple to downstream effectors to regulate the levels of second messengers or cAMP within the cell. Thereby, determination of intracellular cAMP levels allows for pharmacological characterization. Intracellular cAMP levels are quantitated using a homogenous assay utilizing the Homogeneous Time-Resolved Fluorescence (HTRF) technology from CisBio. The method is a competitive immunoassay between native cAMP produced by cells and the cAMP labelled with the acceptor dye, d2. The two entities then compete for binding to a monoclonal anti-cAMP antibody labeled with cryptate. The specific signal is inversely proportional to the concentration of cAMP in the cells.
Test compounds were solubilized to 30 mM in 100% dimethyl sulfoxide (DMSO) and stored. […] The final compound concentration range in the assay was 400 nM to […], with a final DMSO concentration of 0.1%.
(95% O2: 5% CO2) overnight, with micro-clime lids (Labcyte, Cat No. LLS-0310). […] Cells were incubated with compound for 30 minutes at 37° C. (95% O2: 5% CO2) before addition of 5 μL EC80, agonist stimulation (200 nM α-melanocyte stimulating hormone, aMSH, Bachem) and another 30-minute incubation at 37° C. (95% O2: 5% CO2). Intracellular cAMP levels were quantified as per Cisbio's protocol (5 uL of D2 and then 5 uL Cryptate, incubated for 1-2 hours at room temperature).
Data expressed as nM cAMP were then normalized to control wells using Activity Base (IDBS). Zero percent effect (ZPE) was defined as nM of cAMP generated from ECK, agonist stimulation (200 nM aMSH). In the absence of an antagonist control compound, one hundred percent effect (HPE) was defined as nM of cAMP generated from assay buffer/vehicle only.
`[2H]c1cc([2H])nc(-c2cc3c(nc2C)N[C@@]2(CC3)CCN(C(=O)[C@H](C)c3cc(OC)ncc3F)C2)n1` [Example 18, (2R)-2-(5-Fluoro-2-methoxypyridin-4-yl)-1-{(2S)-7-methyl-6-[(4,6-^2H2)pyrimidin-2-yl]-3,4-dihydro-1H-spiro[1,8-naphthyridine-2,3′-pyrrolidin]-1′-yl}propan-1-one] displayed a Kb of 0.55 nM.

Staying with this test, now noted: human MC4R in CHO cells, cAMP HTRF, 200 nM aMSH challenge; Kb from IC50 by Leff-Dougall equation; geometric mean; read-out: Kb (nM) Antagonist geometric.
Take `Cc1nc2c(cc1-c1ncccn1)CC[C@@]1(CCN(C(=O)[C@H](C)c3ccc(F)cc3F)C1)N2` (single isomer, unassigned) [Example 190]: the Kb came to 5.9 nM. Take `COc1cc([C@@H](C)C(=O)N2CC[C@@]3(CCc4cc(-c5cnc(C)s5)c(C)nc4N3)C2)c(F)cn1` [Example 153, (2R)-2-(5-fluoro-2-methoxypyridin-4-yl)-1-[(2S)-7-methyl-6-(2-methyl-1,3-thiazol-5-yl)-3,4-dihydro-1H-spiro[1,8-naphthyridine-2,3′-pyrrolidin]-1′-yl]propan-1-one]: the Kb was found to be 15 nM. Consider `COc1cc([C@@H](C)C(=O)N2CC[C@@]3(CCc4cc(-c5cnsc5)c(C)nc4N3)C2)c(F)cn1` [Example 150, (2R)-2-(5-fluoro-2-methoxypyridin-4-yl)-1-[(2S)-7-methyl-6-(1,2-thiazol-4-yl)-3,4-dihydro-1H-spiro[1,8-naphthyridine-2,3′-pyrrolidin]-1′-yl]propan-1-one], for which the Kb came out at 9 nM.

As for `COc1cc(C(C)C(=O)N2CC[C@@]3(CCc4cc(-c5nnn(C)n5)c(C)nc4N3)C2)ccn1` (single isomer, unassigned) [Example 125], the Kb turned out to be 5.1 nM. Take `COc1cc([C@@H](C)C(=O)N2CC[C@@]3(CCc4cc(-c5cncc(C)n5)c(C)nc4N3)C2)c(F)cn1` [Example 156, (2R)-2-(5-fluoro-2-methoxypyridin-4-yl)-1-[(2S)-7-methyl-6-(6-methylpyrazin-2-yl)-3,4-dihydro-1H-spiro[1,8-naphthyridine-2,3′-pyrrolidin]-1′-yl]propan-1-one]: the Kb amounted to 20 nM. In the case of `COc1cc([C@@H](C)C(=O)N2CC[C@@]3(CCc4cc(Cl)c(C)nc4N3)C2)c(F)cn1` (single isomer, unassigned) [Example 102], the Kb is greater than 92 nM. Turning to `COc1cc([C@@H](C)C(=O)N2CC[C@@]3(CCc4cc(-c5ccc(F)cn5)c(C)nc4N3)C2)c(F)cn1` [Example 139, (2R)-2-(5-fluoro-2-methoxypyridin-4-yl)-1-[(2S)-6-(5-fluoropyridin-2-yl)-7-methyl-3,4-dihydro-1H-spiro[1,8-naphthyridine-2,3′-pyrrolidin]-1′-yl]propan-1-one], the Kb came to 21 nM. As to `COc1cc([C@@H](C)C(=O)N2CC[C@@]3(CCc4cc(-c5cccc(C(F)F)n5)c(C)nc4N3)C2)c(F)cn1` [Example 181, (2R)-1-{(2S)-6-[6-(difluoromethyl)pyridin-2-yl)-7-methyl-3,4-dihydro-1H-spiro[1,8-naphthyridine-2,3′-pyrrolidin]-1′-yl}-2-(5-fluoro-2-methoxypyridin-4-yl)propan-1-one], the antagonist dissociation constant (Kb) is 14 nM.

With `COc1cc([C@](C)(F)C(=O)N2CC[C@@]3(CCc4cc(-c5ncccn5)c(C)nc4N3)C2)c(F)cn1` (single isomer, unassigned) [Example 148], the Kb was 19 nM. Regarding `COc1cc([C@@H](C)C(=O)N2CC[C@@]3(CCc4cc(-c5ccc(C6CC6)nn5)c(C)nc4N3)C2)c(F)cn1` [Example 199, (2R)-1-[(2S)-6-(6-cyclopropylpyridazin-3-yl)-7-methyl-3,4-dihydro-1H-spiro[1,8-naphthyridine-2,3′-pyrrolidin]-1′-yl]-2-(5-fluoro-2-methoxypyridin-4-yl)propan-1-one], the Kb was greater than 54 nM.

Regarding `COc1cc([C@@H](C)C(=O)N2CC[C@]3(CCc4cc(-c5nnn(C)n5)c(C)nc4N3)C2)c(F)cn1` [Example 116, (2R)-2-(5-fluoro-2-methoxypyridin-4-yl)-1-[(2R)-7-methyl-6-(2-methyl-2H-tetrazol-5-yl)-3,4-dihydro-1H-spiro[1,8-naphthyridine-2,3′-pyrrolidin]-1′-yl]propan-1-one], the Kb was 1.7 nM.

Still in this test, the particulars now being: read-out: Kb (nM) Antagonist geometric mean.
Take `COc1cc([C@@H](C)C(=O)N2CC[C@@]3(CCc4ccc(C)nc4N3)C2)c(F)cn1` (single isomer, unassigned) [Example 98]: the Kb came to 19 nM. The same measure, in the same setting: with `COc1cc([C@@H](C)C(=O)N2CC[C@@]3(CCc4ccc(C)nc4N3)C2)nc(C)n1` (single isomer, unassigned) [Example 23, 2-(6-methoxy-2-methylpyrimidin-4-yl)-1-(7-methyl-3,4-dihydro-1H-spiro[1,8-naphthyridine-2,3′-pyrrolidin]-1′-yl)propan-1-one] the figure was 24 nM; with `COc1cc([C@@H](C)C(=O)N2CCC3(CCc4cc(-c5coc(C)n5)c(C)nc4N3)C2)c(F)cn1` (mixture of isomers) [Example 33, (2R)-2-(5-fluoro-2-methoxypyridin-4-yl)-1-[7-methyl-6-(2-methyl-1,3-oxazol-4-yl)-3,4-dihydro-1H-spiro[1,8-naphthyridine-2,3′-pyrrolidin]-1′-yl]propan-1-one], 3.2 nM; with `COc1cc([C@](C)(F)C(=O)N2CC[C@@]3(CCc4cc(-c5ncccn5)c(C)nc4N3)C2)ccn1` (single isomer, unassigned) [Example 46], 7.2 nM. On to `Cc1nc2c(cc1-c1nnn(C)n1)CC[C@@]1(CCN(C(=O)Cc3ccc(C(F)(F)F)cc3)C1)N2` (single isomer, unassigned) [Example 65, 1-[7-methyl-6-(2-methyl-2H-tetrazol-5-yl)-3,4-dihydro-1H-spiro[1,8-naphthyridine-2,3′-pyrrolidin]-1′-yl]-2-[4-(trifluoromethyl)phenyl]ethan-1-one], for which the Kb was found to be 10 nM.

As usually defined, the Ki is a dissociation constant, usually derived from enzyme kinetics or from competition with a known ligand. What is called Kb is the affinity of an antagonist, worked out from how it opposes an agonist.
